# Test results: patent EP1105728B1, “MODULATING MULTIPLE LINEAGE KINASE PROTEINS” (CEPHALON, INC., priority 1998, dated 2000)
# Where “and” joins values, the source holds several entries; their conditions need not be identical. Identical values can stand only once. Like-named read-outs stand apart in the source and are kept apart here. Marks after values point to notes of the source that are not given here.
# Legend:
# [1] = target: T1, MLK-3 (Homo sapiens, UniProt Q16584); test: JNK activity (immunoprecipitation/kinase assay) in Cos7 cells overexpressing MLK-3 and HA-JNK1; type: cell-based; settings: COS-7
# T1 construct: A full length cDNA of human MLK-3, MLK-2, or mouse DLK; expressed in transfected cells; host or cells: Cos7
# T1 sequence (Q16584 whole entry): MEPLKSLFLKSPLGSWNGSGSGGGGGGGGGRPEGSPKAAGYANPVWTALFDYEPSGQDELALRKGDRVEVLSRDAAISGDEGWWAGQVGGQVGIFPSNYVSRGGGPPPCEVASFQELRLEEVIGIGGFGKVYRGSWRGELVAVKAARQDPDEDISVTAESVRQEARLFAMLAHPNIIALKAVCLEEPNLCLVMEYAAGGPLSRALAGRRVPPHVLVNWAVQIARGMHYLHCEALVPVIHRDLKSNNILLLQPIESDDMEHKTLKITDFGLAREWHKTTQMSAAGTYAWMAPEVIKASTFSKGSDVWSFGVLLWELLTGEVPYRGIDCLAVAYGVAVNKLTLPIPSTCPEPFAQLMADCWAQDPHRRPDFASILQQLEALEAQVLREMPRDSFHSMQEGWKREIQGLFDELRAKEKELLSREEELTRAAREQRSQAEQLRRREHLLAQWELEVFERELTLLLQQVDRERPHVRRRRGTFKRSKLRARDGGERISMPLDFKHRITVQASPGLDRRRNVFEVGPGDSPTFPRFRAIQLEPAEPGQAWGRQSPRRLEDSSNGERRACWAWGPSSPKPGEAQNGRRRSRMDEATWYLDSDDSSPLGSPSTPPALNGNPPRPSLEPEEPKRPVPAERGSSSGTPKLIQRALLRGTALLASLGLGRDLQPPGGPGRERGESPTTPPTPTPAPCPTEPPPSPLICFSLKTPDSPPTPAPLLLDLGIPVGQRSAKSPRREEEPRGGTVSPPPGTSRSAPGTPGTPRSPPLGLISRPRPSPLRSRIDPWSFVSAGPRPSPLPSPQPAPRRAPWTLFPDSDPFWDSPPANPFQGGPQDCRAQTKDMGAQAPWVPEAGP
# Procedure: Cos7 cells were plated at 80% confluency and transfected with 2 ug each of cDNA constructs using lipofectamine as recommended by the provider (Gibco BRL, Gaithersburg, MD). A full length cDNA of human MLK-3, MLK-2, or mouse DLK or a partial human MLK-1 as described above, and a full length Hemagluttinin A-tagged human JNK1, kindly provided by J. Silvio Gutkind (NIH, Bethesda, MD), were subcloned into the pcDNA3 vector (Invitrogen, San Diego, CA). […] JNK activity from the lysate was assayed by an immunoprecipitation/kinase assay as described below.
# Lysate from Cos 7 cells was measured for protein concentration using the Micro BCA kit from Pierce (Rockford, IL) and equal amounts of protein were immunoprecipitated with the HA antibody for 1 hr at 4°C. Immunoprecipitates were pelleted by centrifugation in a microfuge centrifuge for 20 sec, resuspended in Triton buffer, washed by centrifugation 2 more times, followed by a final wash in Kinase buffer (20 mM Hepes pH 7.4,20 mM MgCl2, 2 mM dithiothreitol, 0.1 mM sodium vanadate). The immunoprecipitate was resuspended in kinase buffer containing 1 µM ATP and 5 µCi [γ-^32P]ATP and substrate (1 µg/sample of AP-1 ) and incubated for 15 min at 30°C. […] Samples were heated to 80°C for 5 min and loaded onto 10% SDS-polyacrylamide gels. Proteins were separated by electrophoresis. The gel was dried and quantitation of radioactivity in the AP-1 substrate was performed on a Molecular Dynamics Phosphorimager (Sunnyvale, Ca.).
# To determine whether inhibition of the JNK pathway regulated by these kinases correlated with neurotrophic compounds, we evaluated the effect of compounds on JNK activity in Cos7 cells overexpressing HA-JNK and MLK3. After a 48 hr transfection period, the cells were incubated with compounds at 500 nM for 2hr followed by cellular lysis. Lysate was immunoprecipitated and kinase activity measured as previously described. […]
# [2] = tested on: dorsal root ganglion sensory neurons (DRG); test: Survival of chick embryonic dorsal root ganglion sensory neurons; type: cell-based
# Procedure: Paravertebral sympathetic ganglia (SG; embryonal day 12 (E12)), dorsal root ganglia (DRG;E9), and ciliary ganglia (CG;E8) were dissected from chick embryos at the indicated embryonic day as described in Lindsay, et al., Dev. Biol., 1985, 112, 319-328, which is incorporated herein by reference in its entirety. After trypsinization and dissociation, the nerve cell suspensions were plated onto polyomithine-laminin-coated culture dishes in Ham's F14 culture medium, supplemented with 10% horse serum. Immediately after plating, survival factors were added at the following concentrations: Nerve growth factor (NGF), 20 ng/ml; ciliary neutrophic factor (CNTF), 10 ng/ml. The cultures were maintained at 37° and 5% CO2 in a humidified environment.
# Neurons were plated in 35 mm culture dishes with grids (Nunc). […] Cell survival was confirmed by vital staining with trypan blue (not shown).
# [3] = tested on: intact embryonic dorsal root ganglia; test: Neurite outgrowth from intact dorsal root ganglia; type: cell-based, chick; settings: 250 nM Compound III-3 or 20 ng/ml NGF; 48 h
# Procedure: Ganglia were placed in 96 well plates previously coated with poly-1-omithine and laminin (5 µg each/ml phosphate buffered saline) in serum-free N2 medium (Bottenstein, et al., Proc. Natl. Acad. Sci. USA, 1979, 76, 514-517, which is incorporated herein by reference in its entirety) containing 0.05% bovine serum albumin (BSA) and maintained for 48 h at 37° and 5% CO2 in a humidified environment. Treated ganglia received either 250 nM Compound III-3 or 20 ng/ml NGF 2 h after plating.
# [4] = tested on: hypoglossal motor neurons; test: Axotomy-induced motor neuronal dedifferentiation in the adult rat (hypoglossal nerve); type: in vivo; settings: for ChAT-Positive Motor Neurons Average/Group / ChAT-Positive Motor Neurons Experimental/Control / ChAT-Positive Motor Neurons %: 7 days; for ChAT-Positive Motor Neurons Experimental/Control: counts ipsilateral/contralateral; for ChAT-Positive Motor Neurons Experimental/Control / ChAT-Positive Motor Neurons %: per animal
# Procedure: The left hypoglossal nerve was transected in the neck of adult female Sprague-Dawley rats (120-180 g) under Neumbutol anesthesia, and 50 µl of Compound III-3 or its vehicle (5% Solutol™ HS 15) were applied to a piece of Gelfoam ™ (AJ Buck, Owings Mills, MD), then wrapped around the proximal end of the transected nerve. After 7 days, the animals were anesthetized and perfused with 4% paraformaldehyde in Sorenson's buffer, 0.07 M phosphate, pH 7.2. The brain stem was removed and 40- µm-thick serial coronal sections were cut on a cryostat (Chiu, et al., NeuroReport, 1994, 5, 693-696, which is incorporated herein by reference in its entirety). Every fifth section was processed for ChAT immunohistochemistry as previously described (Chiu, et al., J. Comp. Neurol., 1993, 328, 351-363, which is incorporated herein by reference in its entirety) using a 1:350 dilution of an anti-ChAT monoclonal antibody obtained from Chemicon. Cells that stained clearly above background were counted in stained sections; the number of enumerated cells was expressed as the ratio of the number of ChAT-immunoreactive cells on the axotomized side of the hypoglossal nucleus versus the number of immunoreactive cells on the control (uninjured) side.
# [5] = tested on: MKK4; test: MPTP model: phosphorylated MKK4 in the substantia nigra (immunoblot, ELISA); type: in vivo, mice; settings: pretreatment; Compound III-3 1 mg/kg (Fig. 22c)
# Procedure: MPTP was administered at a dose (40 mg/kg) that produces loss of striatal dopaminergic terminals and cell bodies in the substantia nigra. Tyrosine hydroxylase was used as a marker for dopamenergic nerve terminals in the substantia nigra. […] Since Compound III-3 is a known inhibitor of MLK3, activation of a downstream substrate of MLK3 was measured in MPTP- treated mice. Levels of phosphorylated MKK4 were measured using a phospho-MKK4 specific antibody (New England Biolabs, Beverly, MA) that recognizes the monophosphorylated form of MKK4 by either immunoblot (Fig. 22b) or ELISA (Fig. 22c). MPTP administration elevated levels of phosphorylated MKK4 in the substantia nigra by up to 5 fold over control levels (Fig. 22b). Peak elevations occurred 4 hrs after administration ofMPTP and coincided with peak CNS levels of MPP^+.
# [6] = target: trkA tyrosine kinase (Homo sapiens, UniProt P04629); settings: Maroney et al.; Kaneko et al.; cited from earlier work
# Chain of trkA tyrosine kinase (P04629 33-796): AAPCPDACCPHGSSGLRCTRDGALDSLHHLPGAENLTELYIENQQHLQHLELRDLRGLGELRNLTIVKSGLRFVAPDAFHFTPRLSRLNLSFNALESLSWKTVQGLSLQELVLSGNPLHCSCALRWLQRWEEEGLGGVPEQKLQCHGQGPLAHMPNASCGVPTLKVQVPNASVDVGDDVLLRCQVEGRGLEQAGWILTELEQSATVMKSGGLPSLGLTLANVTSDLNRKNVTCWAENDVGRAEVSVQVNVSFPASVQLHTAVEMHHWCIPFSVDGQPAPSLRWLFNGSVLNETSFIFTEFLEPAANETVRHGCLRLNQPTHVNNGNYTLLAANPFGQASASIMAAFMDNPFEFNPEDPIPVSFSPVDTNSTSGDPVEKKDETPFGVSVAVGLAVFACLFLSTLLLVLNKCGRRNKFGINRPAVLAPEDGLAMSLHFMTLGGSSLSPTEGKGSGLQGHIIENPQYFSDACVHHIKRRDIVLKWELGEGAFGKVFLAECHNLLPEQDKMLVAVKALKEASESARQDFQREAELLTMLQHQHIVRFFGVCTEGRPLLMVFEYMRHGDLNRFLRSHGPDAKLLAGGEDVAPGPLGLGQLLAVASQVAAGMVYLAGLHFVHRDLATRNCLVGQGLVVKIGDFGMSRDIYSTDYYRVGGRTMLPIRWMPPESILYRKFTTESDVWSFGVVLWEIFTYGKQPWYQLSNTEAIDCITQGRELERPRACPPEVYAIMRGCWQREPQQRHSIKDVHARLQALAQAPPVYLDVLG
structure (smiles),measurement,setting,value
CCSCc1ccc2c(c1)c1c3c(c4c5cc(CSCC)ccc5n5c4c1n2C1CC(O)(C(=O)OC)C5(C)O1)CNC3=O (stereo not drawn) [III-3],inhibition at 0.5 µM,"[1]; 500 nM for 2hr, control is JNK activity in the presence of DMSO, read-out: % Inhibition of JNK Activity (average) MLK3 in Cos7 cells",94%
same,inhibition at 0.5 µM,[1]; read-out: Overexpressed MLK3 in Cos 7 Cells JNK % inh. 500 nM,94%
same,concentration at which the survival effect reached a plateau,[2]; 10% serum (Fig. 16),around 1 µM
same,DRG survival,[2]; after four days,52%
same,neurite outgrowth from intact dorsal root ganglia,[3],Neurites grew
same,ChAT-Positive Motor Neurons Average/Group,[4]; 3.6 µg in gel foam,12.84*
same,ChAT-Positive Motor Neurons Experimental/Control,[4]; 3.6 µg in gel foam,55/420 and 72/572
same,ChAT-Positive Motor Neurons %,[4]; 3.6 µg in gel foam,13.10% and 12.59%
same,ChAT-Positive Motor Neurons Average/Group,[4]; 25 µg in gel foam,19.01*
same,ChAT-Positive Motor Neurons Experimental/Control,[4]; 25 µg in gel foam,95/597 and 142/642
same,ChAT-Positive Motor Neurons %,[4]; 25 µg in gel foam,15.91% and 22.12%
same,ChAT-Positive Motor Neurons Average/Group,[4]; 50 µg in gel foam,41.34*
same,ChAT-Positive Motor Neurons Experimental/Control,[4]; 50 µg in gel foam,278/637 and 188/484
same,ChAT-Positive Motor Neurons %,[4]; 50 µg in gel foam,43.85% and 38.84%
same,ChAT-Positive Motor Neurons Average/Group,[4]; 100 µg in gel foam,32.61*
same,ChAT-Positive Motor Neurons Experimental/Control,[4]; 100 µg in gel foam,465/920 and 235/784 and 178/770 and 182/679
same,ChAT-Positive Motor Neurons %,[4]; 100 µg in gel foam,50.54% and 29.98% and 23.12% and 26.80%
same,ChAT-Positive Motor Neurons Average/Group,[4]; 200 µg in gel foam,24.96*
same,ChAT-Positive Motor Neurons Experimental/Control,[4]; 200 µg in gel foam,99/461 and 159/559
same,ChAT-Positive Motor Neurons %,[4]; 200 µg in gel foam,21.48% and 28.44%
same,"weight loss, mortality, gross tissue damage","[4]; any doses tested, hypoglossal axotomy model","no associated weight loss, mortality, or gross tissue damage"
same,"more ChAT-immunoreactive motor neurons compared to the axotomized, untreated control","[4]; maximally effective dose (50 µg), 7 days postaxotomy",40%
same,MPTP-mediated MKK4 phosphorylation,[5],partially inhibited
same,inhibitory activity against trkA tyrosine kinase,[6],did not exhibit inhibitory activity
